How the values were obtained:
[1] = biological target: T1, Phosphatidylinositol 4,5-bisphosphate 3-kinase catalytic subunit delta isoform (Homo sapiens, UniProt O00329); assay: PI3Kdelta Scintillation Proximity Assay; details: pH 6.7; 25 °C
T1 sequence (O00329 whole entry): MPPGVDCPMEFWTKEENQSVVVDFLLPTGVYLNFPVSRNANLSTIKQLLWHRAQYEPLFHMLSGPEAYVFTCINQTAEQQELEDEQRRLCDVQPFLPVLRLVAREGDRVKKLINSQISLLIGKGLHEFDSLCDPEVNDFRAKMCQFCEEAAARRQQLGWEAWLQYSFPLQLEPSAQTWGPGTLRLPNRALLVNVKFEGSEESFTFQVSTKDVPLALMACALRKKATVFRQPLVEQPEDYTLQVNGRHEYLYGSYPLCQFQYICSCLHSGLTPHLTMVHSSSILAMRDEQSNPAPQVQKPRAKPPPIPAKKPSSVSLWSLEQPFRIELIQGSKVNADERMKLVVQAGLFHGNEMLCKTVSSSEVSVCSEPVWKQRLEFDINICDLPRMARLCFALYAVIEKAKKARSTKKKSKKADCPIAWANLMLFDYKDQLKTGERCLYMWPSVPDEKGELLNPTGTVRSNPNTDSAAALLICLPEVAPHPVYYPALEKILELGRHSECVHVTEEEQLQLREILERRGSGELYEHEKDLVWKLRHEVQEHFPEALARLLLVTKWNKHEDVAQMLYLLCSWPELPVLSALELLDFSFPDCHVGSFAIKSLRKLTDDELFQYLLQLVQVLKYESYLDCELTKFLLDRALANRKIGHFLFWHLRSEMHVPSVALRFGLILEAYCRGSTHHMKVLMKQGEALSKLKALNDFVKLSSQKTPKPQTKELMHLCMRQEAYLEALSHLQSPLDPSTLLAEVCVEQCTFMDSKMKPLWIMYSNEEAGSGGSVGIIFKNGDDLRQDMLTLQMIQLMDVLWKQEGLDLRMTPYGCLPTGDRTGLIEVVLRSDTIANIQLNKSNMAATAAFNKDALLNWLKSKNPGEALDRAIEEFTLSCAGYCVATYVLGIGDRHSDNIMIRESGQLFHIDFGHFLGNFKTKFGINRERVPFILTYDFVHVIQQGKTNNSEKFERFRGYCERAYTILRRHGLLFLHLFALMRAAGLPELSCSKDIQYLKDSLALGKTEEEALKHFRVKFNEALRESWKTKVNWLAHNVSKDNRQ
From the text: [γ-33P]ATP (10 mCi/mL) and Wheat Germ Agglutinin (WGA) YSi SPA Scintillation Beads was purchased from Perkin-Elmer (Waltham, Mass.). Lipid kinase substrate, D-myo-Phosphatidylinositol 4,5-bisphosphate (PtdIns(4,5)P2)D (+)-sn-1,2-di-O-octanoylglyceryl, 3-O-phospho linked (PIP2), CAS 204858-53-7, was purchased from Echelon Biosciences (Salt Lake City, Utah). PI3Kδ (p110δ/p85α) Recombinant Human Protein was purchased from Eurofins (St. Charles, Mo.). ATP, MgCl2, DTT, EDTA, MOPS and CHAPS were purchased from Sigma-Aldrich (St. Louis, Mo.).The kinase reaction was conducted in polystyrene 384-well Greiner Bio-one white plate from Thermo Fisher Scientific in a final volume of 25 μL. Inhibitors were first diluted serially in DMSO and added to the plate wells before the addition of other reaction components. The final concentration of DMSO in the assay was 2%. The PI3Kδ assay was carried out at room temperature in 20 mM MOPS, pH 6.7, 10 mM MgCl2, 5 mM DTT and CHAPS 0.03%. Reactions were initiated by the addition of ATP, the final reaction mixture consisted of 20 μM PIP2, 2 μM ATP, 0.5 μCi [γ-33P] ATP, 3.4 nM PI3Kδ. Reactions were incubated for 120 min and terminated by the addition of 40 μL SPA beads suspended in quench buffer: 163 mM potassium phosphate pH 7.8, 20% glycerol, 25 mM EDTA. The final concentration of SPA beads is 1.0 mg/mL. After the plate sealing, plates were shaken overnight at room temperature and centrifuged at 1500 rpm for 10 min, the radioactivity of the product was determined by scintillation counting on Topcount (Perkin-Elmer). IC50 determination was performed by fitting the curve of percent of the solvent control activity versus the log of the inhibitor concentration using the GraphPad Prism 6.0 software.

[2] = biological target: Phosphatidylinositol 4,5-bisphosphate 3-kinase catalytic subunit gamma isoform (Homo sapiens, UniProt P48736); assay: PI3K-gamma Scintillation Proximity Assay; details: pH 6.7; 25 °C
From the text: γ-33P]ATP (10 mCi/mL) and Wheat Germ Agglutinin (WGA) YSi SPA Scintillation Beads was purchased from Perkin-Elmer (Waltham, Mass.). Lipid kinase substrate, D-myo-Phosphatidylinositol 4,5-bisphosphate (PtdIns(4,5)P2)D (+)-sn-1,2-di-O-octanoylglyceryl, 3-O-phospho linked (PIP2), CAS 204858-53-7, was purchased from Echelon Biosciences (Salt Lake City, Utah). PI3Kγ (p110γ) Recombinant Human Protein was purchased from Life technology (Grand Island, N.Y.). ATP, MgCl2, DTT, EDTA, MOPS and CHAPS were purchased from Sigma-Aldrich (St. Louis, Mo.).The kinase reaction was conducted in polystyrene 384-well Greiner Bio-one white plate from Thermo Fisher Scientific in a final volume of 25 μL. Inhibitors were first diluted serially in DMSO and added to the plate wells before the addition of other reaction components. The final concentration of DMSO in the assay was 2%. The PI3Kγ assay was carried out at room temperature in 20 mM MOPS, pH 6.7, 10 mM MgCl2, 5 mM DTT and CHAPS 0.03%. Reactions were initiated by the addition of ATP, the final reaction mixture consisted of 20 μM PIP2, 2 μM ATP, 0.5 μCi [γ-33P] ATP, 13 nM PI3Kγ. […] After the plate sealing, plates were shaken overnight at room temperature and centrifuged at 1500 rpm for 10 min, the radioactivity of the product was determined by scintillation counting on Topcount (Perkin-Elmer). […]

Chain of Phosphatidylinositol 4,5-bisphosphate 3-kinase catalytic subunit gamma isoform (P48736 whole entry, canonical isoform): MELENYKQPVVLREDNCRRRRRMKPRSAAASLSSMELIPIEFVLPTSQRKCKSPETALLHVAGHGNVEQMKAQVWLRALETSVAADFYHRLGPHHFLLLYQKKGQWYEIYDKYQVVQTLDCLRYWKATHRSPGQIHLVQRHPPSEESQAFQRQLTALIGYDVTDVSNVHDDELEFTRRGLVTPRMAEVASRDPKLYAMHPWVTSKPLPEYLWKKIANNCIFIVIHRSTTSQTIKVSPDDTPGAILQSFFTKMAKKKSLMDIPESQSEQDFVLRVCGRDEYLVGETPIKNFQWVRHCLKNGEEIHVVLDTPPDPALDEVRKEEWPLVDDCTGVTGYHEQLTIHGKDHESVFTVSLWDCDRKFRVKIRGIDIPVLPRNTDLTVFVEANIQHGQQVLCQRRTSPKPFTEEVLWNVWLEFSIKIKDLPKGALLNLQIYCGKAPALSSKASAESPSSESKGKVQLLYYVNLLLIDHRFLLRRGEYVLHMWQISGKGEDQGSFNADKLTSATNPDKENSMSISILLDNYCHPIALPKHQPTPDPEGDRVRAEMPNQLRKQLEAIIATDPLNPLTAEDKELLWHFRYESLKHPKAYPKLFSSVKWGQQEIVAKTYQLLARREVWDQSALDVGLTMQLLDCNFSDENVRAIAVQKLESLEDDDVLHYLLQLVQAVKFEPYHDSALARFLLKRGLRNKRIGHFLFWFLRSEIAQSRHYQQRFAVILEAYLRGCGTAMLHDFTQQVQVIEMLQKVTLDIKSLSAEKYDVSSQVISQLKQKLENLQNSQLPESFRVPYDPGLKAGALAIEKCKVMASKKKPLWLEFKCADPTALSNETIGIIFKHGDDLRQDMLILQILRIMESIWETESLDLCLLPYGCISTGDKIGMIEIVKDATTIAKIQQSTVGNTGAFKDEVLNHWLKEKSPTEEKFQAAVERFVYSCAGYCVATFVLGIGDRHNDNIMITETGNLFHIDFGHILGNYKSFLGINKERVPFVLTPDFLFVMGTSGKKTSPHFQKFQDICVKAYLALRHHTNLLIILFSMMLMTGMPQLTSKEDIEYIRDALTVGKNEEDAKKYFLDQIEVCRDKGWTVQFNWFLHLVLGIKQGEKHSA

Compound | IC50 [1] [µM] | IC50 [2] [µM]
COc1cncc(-c2ccc3nc(-c4cc5ccccc5[nH]4)oc3c2)c1 [US10022387, Example 4] | < 5 | 
CC(=O)Nc1cc(-c2ccc3nc(-c4nc5ccccc5[nH]4)oc3c2)cnc1F [US10022387, Example 33] | > 5 | < 1
CCS(=O)(=O)Nc1cncc(-c2ccc3nc(-c4nc5ccccc5[nH]4)oc3c2)c1 [US10022387, Example 73] | < 5 | 
